Laboratory results as given in ChEMBL document CHEMBL3885881, “DrugMatrix”.

Species: Rattus norvegicus
Assay: DrugMatrix - Regimen: Daily Repeat
Assay type: toxicity, organism-based, Sprague-Dawley
Design: regimen Daily Repeat, gender Male, age 6-8 weeks
Conditions: in vivo, po, route oral GAVAGE, vehicle .5 % CMC; for BASOPHIL / EOSINOPHIL / ERYTHROCYTE COUNT / HEMATOCRIT / HEMOGLOBIN / LEUKOCYTE COUNT / LYMPHOCYTE / MEAN CORPUSCULAR HEMOGLOBIN / MEAN CORPUSCULAR HEMOGLOBIN CONCENTRATION / MEAN CORPUSCULAR VOLUME / MONOCYTE / NEUTROPHIL / PLATELET COUNT: tissue Blood; for ALANINE AMINOTRANSFERASE / ALBUMIN / ALKALINE PHOSPHATASE / ASPARTATE AMINOTRANSFERASE / BLOOD UREA NITROGEN / CHOLESTEROL / CREATINE PHOSPHOKINASE / CREATININE / GLUCOSE / PHOSPHORUS / POTASSIUM / SODIUM / TOTAL BILIRUBIN / TOTAL PROTEIN: tissue Plasma
[1] = 0 mg/kg, 72 h, dose level Control, time 3 day
[2] = 0 mg/kg, 120 h, dose level Control, time 5 day
[3] = 45 mg/kg, 72 h, dose level High, time 3 day
[4] = 45 mg/kg, 120 h, dose level High, time 5 day
[5] = […], 72 h, dose 1.1 mg/Kg, dose level Low, time 3 day
[6] = […], 120 h, dose 1.1 mg/Kg, dose level Low, time 5 day

SMILES: COc1cc(NC(C)CCCN)c2ncccc2c1 (configuration not stated) [PRIMAQUINE]
- BASOPHIL [1]: 0%
- EOSINOPHIL [1]: 0%
- ERYTHROCYTE COUNT [1]: 6.19 x10E6/uL
- HEMATOCRIT [1]: 36.94%
- HEMOGLOBIN [1]: 14.58 G/DL
- LEUKOCYTE COUNT [1]: 11.54 x10E3/uL
- LYMPHOCYTE [1]: 84.8%
- MEAN CORPUSCULAR HEMOGLOBIN [1]: 23.58 pg
- MEAN CORPUSCULAR HEMOGLOBIN CONCENTRATION [1]: 39.44 G/DL
- MEAN CORPUSCULAR VOLUME [1]: 59.76 fL
- MONOCYTE [1]: 1.4%
- NEUTROPHIL [1]: 13.8%
- PLATELET COUNT [1]: 1068.8 x10E3/uL
- ALANINE AMINOTRANSFERASE [1]: 38.17 u/L
- ALBUMIN [1]: 3.88 G/DL
- ALKALINE PHOSPHATASE [1]: 391.33 u/L
- ASPARTATE AMINOTRANSFERASE [1]: 69.83 u/L
- BLOOD UREA NITROGEN [1]: 15 mg/dL
- CHOLESTEROL [1]: 72.17 mg/dL
- CREATINE PHOSPHOKINASE [1]: 174.33 u/L
- CREATININE [1]: 0.58 mg/dL
- GLUCOSE [1]: 192.67 mg/dL
- PHOSPHORUS [1]: 10.52 mg/dL
- POTASSIUM [1]: 6.8 MEQ/L
- SODIUM [1]: 149.67 MEQ/L
- TOTAL BILIRUBIN [1]: 0.78 mg/dL
- TOTAL PROTEIN [1]: 6.28 G/DL
- BASOPHIL [2]: 0%
- EOSINOPHIL [2]: 0.17%
- ERYTHROCYTE COUNT [2]: 6.72 x10E6/uL
- HEMATOCRIT [2]: 40.02%
- HEMOGLOBIN [2]: 15.83 G/DL
- LEUKOCYTE COUNT [2]: 9.5 x10E3/uL
- LYMPHOCYTE [2]: 87.17%
- MEAN CORPUSCULAR HEMOGLOBIN [2]: 23.57 pg
- MEAN CORPUSCULAR HEMOGLOBIN CONCENTRATION [2]: 39.62 G/DL
- MEAN CORPUSCULAR VOLUME [2]: 59.55 fL
- MONOCYTE [2]: 1.67%
- NEUTROPHIL [2]: 11%
- PLATELET COUNT [2]: 1053.67 x10E3/uL
- ALANINE AMINOTRANSFERASE [2]: 26.33 u/L
- ALBUMIN [2]: 4.02 G/DL
- ALKALINE PHOSPHATASE [2]: 316.67 u/L
- ASPARTATE AMINOTRANSFERASE [2]: 61.33 u/L
- BLOOD UREA NITROGEN [2]: 18.67 mg/dL
- CHOLESTEROL [2]: 65.17 mg/dL
- CREATINE PHOSPHOKINASE [2]: 161.17 u/L
- CREATININE [2]: 0.75 mg/dL
- GLUCOSE [2]: 177.33 mg/dL
- PHOSPHORUS [2]: 9.72 mg/dL
- POTASSIUM [2]: 6.18 MEQ/L
- SODIUM [2]: 150.5 MEQ/L
- TOTAL BILIRUBIN [2]: 0.68 mg/dL
- TOTAL PROTEIN [2]: 6.55 G/DL
- BASOPHIL [3]: 0%
- EOSINOPHIL [3]: 0.33%
- ERYTHROCYTE COUNT [3]: 6.7 x10E6/uL
- HEMATOCRIT [3]: 40.07%
- HEMOGLOBIN [3]: 15.73 G/DL
- LEUKOCYTE COUNT [3]: 10.6 x10E3/uL
- LYMPHOCYTE [3]: 76.67%
- MEAN CORPUSCULAR HEMOGLOBIN [3]: 23.53 pg
- MEAN CORPUSCULAR HEMOGLOBIN CONCENTRATION [3]: 39.3 G/DL
- MEAN CORPUSCULAR VOLUME [3]: 59.87 fL
- MONOCYTE [3]: 2.67%
- NEUTROPHIL [3]: 20.33%
- PLATELET COUNT [3]: 1053 x10E3/uL
- ALANINE AMINOTRANSFERASE [3]: 83.33 u/L
- ALBUMIN [3]: 3.73 G/DL
- ALKALINE PHOSPHATASE [3]: 304.67 u/L
- ASPARTATE AMINOTRANSFERASE [3]: 358.33 u/L
- BLOOD UREA NITROGEN [3]: 10 mg/dL
- CHOLESTEROL [3]: 77.67 mg/dL
- CREATINE PHOSPHOKINASE [3]: 213.33 u/L
- CREATININE [3]: 0.67 mg/dL
- GLUCOSE [3]: 176 mg/dL
- PHOSPHORUS [3]: 11.23 mg/dL
- POTASSIUM [3]: 6.27 MEQ/L
- SODIUM [3]: 148.33 MEQ/L
- TOTAL BILIRUBIN [3]: 0.4 mg/dL
- TOTAL PROTEIN [3]: 6.03 G/DL
- BASOPHIL [4]: 0%
- EOSINOPHIL [4]: 0%
- ERYTHROCYTE COUNT [4]: 5.75 x10E6/uL
- HEMATOCRIT [4]: 35.53%
- HEMOGLOBIN [4]: 14.07 G/DL
- LEUKOCYTE COUNT [4]: 13.03 x10E3/uL
- LYMPHOCYTE [4]: 79.67%
- MEAN CORPUSCULAR HEMOGLOBIN [4]: 24.47 pg
- MEAN CORPUSCULAR HEMOGLOBIN CONCENTRATION [4]: 39.6 G/DL
- MEAN CORPUSCULAR VOLUME [4]: 61.83 fL
- MONOCYTE [4]: 3.67%
- NEUTROPHIL [4]: 16.67%
- PLATELET COUNT [4]: 778.33 x10E3/uL
- ALANINE AMINOTRANSFERASE [4]: 35.67 u/L
- ALBUMIN [4]: 3.63 G/DL
- ALKALINE PHOSPHATASE [4]: 336.33 u/L
- ASPARTATE AMINOTRANSFERASE [4]: 78.67 u/L
- BLOOD UREA NITROGEN [4]: 12 mg/dL
- CHOLESTEROL [4]: 67.33 mg/dL
- CREATINE PHOSPHOKINASE [4]: 151.67 u/L
- CREATININE [4]: 0.57 mg/dL
- GLUCOSE [4]: 177 mg/dL
- PHOSPHORUS [4]: 10.23 mg/dL
- POTASSIUM [4]: 6.03 MEQ/L
- SODIUM [4]: 149 MEQ/L
- TOTAL BILIRUBIN [4]: 0.47 mg/dL
- TOTAL PROTEIN [4]: 5.83 G/DL
- BASOPHIL [5]: 0%
- EOSINOPHIL [5]: 1%
- ERYTHROCYTE COUNT [5]: 5.53 x10E6/uL
- HEMATOCRIT [5]: 33.77%
- HEMOGLOBIN [5]: 13.73 G/DL
- LEUKOCYTE COUNT [5]: 11.03 x10E3/uL
- LYMPHOCYTE [5]: 85%
- MEAN CORPUSCULAR HEMOGLOBIN [5]: 24.87 pg
- MEAN CORPUSCULAR HEMOGLOBIN CONCENTRATION [5]: 40.77 G/DL
- MEAN CORPUSCULAR VOLUME [5]: 61 fL
- MONOCYTE [5]: 2%
- NEUTROPHIL [5]: 12%
- PLATELET COUNT [5]: 1053.67 x10E3/uL
- ALANINE AMINOTRANSFERASE [5]: 32.33 u/L
- ALBUMIN [5]: 3.57 G/DL
- ALKALINE PHOSPHATASE [5]: 308 u/L
- ASPARTATE AMINOTRANSFERASE [5]: 56.33 u/L
- BLOOD UREA NITROGEN [5]: 11.67 mg/dL
- CHOLESTEROL [5]: 75.33 mg/dL
- CREATINE PHOSPHOKINASE [5]: 161.67 u/L
- CREATININE [5]: 0.6 mg/dL
- GLUCOSE [5]: 178 mg/dL
- PHOSPHORUS [5]: 11.23 mg/dL
- POTASSIUM [5]: 6.57 MEQ/L
- SODIUM [5]: 148 MEQ/L
- TOTAL BILIRUBIN [5]: 0.4 mg/dL
- TOTAL PROTEIN [5]: 5.63 G/DL
- BASOPHIL [6]: 0%
- EOSINOPHIL [6]: 0.33%
- ERYTHROCYTE COUNT [6]: 6.36 x10E6/uL
- HEMATOCRIT [6]: 37.73%
- HEMOGLOBIN [6]: 15.4 G/DL
- LEUKOCYTE COUNT [6]: 11.63 x10E3/uL
- LYMPHOCYTE [6]: 91.33%
- MEAN CORPUSCULAR HEMOGLOBIN [6]: 24.37 pg
- MEAN CORPUSCULAR HEMOGLOBIN CONCENTRATION [6]: 41 G/DL
- MEAN CORPUSCULAR VOLUME [6]: 59.37 fL
- MONOCYTE [6]: 1.33%
- NEUTROPHIL [6]: 7%
- PLATELET COUNT [6]: 1065 x10E3/uL
- ALANINE AMINOTRANSFERASE [6]: 27 u/L
- ALBUMIN [6]: 3.9 G/DL
- ALKALINE PHOSPHATASE [6]: 323 u/L
- ASPARTATE AMINOTRANSFERASE [6]: 65.67 u/L
- BLOOD UREA NITROGEN [6]: 15.33 mg/dL
- CHOLESTEROL [6]: 71 mg/dL
- CREATINE PHOSPHOKINASE [6]: 141.33 u/L
- CREATININE [6]: 0.6 mg/dL
- GLUCOSE [6]: 169.33 mg/dL
- PHOSPHORUS [6]: 10.37 mg/dL
- POTASSIUM [6]: 6.4 MEQ/L
- SODIUM [6]: 151.67 MEQ/L
- TOTAL BILIRUBIN [6]: 0.43 mg/dL
- TOTAL PROTEIN [6]: 6.23 G/DL
